Reference: patent US20260184712A1, “Heterocyclic Compounds as ENT Inhibitors and Compounds for Use in the Treatment of Cancers” (iTeos Belgium SA, priority 2022, published 2026)

Biological target: T1, human ENT1 (Homo sapiens, UniProt Q99808)
T1 construct: JAR cells expressing ENT1 were purchased from ATCC; host or cells: JAR cells
T1 sequence (Q99808 1-456): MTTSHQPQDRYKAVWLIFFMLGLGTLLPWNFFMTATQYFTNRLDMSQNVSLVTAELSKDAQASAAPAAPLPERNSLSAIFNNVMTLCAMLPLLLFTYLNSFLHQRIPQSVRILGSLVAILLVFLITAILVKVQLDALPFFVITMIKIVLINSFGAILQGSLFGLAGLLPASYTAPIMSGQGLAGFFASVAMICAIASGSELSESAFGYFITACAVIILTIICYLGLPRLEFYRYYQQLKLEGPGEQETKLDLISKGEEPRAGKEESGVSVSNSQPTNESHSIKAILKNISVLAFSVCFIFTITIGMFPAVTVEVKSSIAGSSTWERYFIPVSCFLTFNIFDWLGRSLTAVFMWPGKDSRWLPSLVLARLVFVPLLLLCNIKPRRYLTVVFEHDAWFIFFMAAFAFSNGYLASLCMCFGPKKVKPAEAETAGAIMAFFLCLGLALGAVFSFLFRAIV
Experiment: ENT1 binding assay (competition with Sahenta-DY647 on JAR cells)
Details: competition with SAHENTA-DY647 binding; IC50 categorized; read-out: Binding Assay IC50
Protocol: Compounds of the present disclosure were assayed to show ability to bind to human ENT1. The assay is a competition between a compound of interest and Sahenta-DY647, an ENT1 inhibitor that emits fluorescence (Ex=630 nm, Em=670 nm). By measuring the fluorescence at the end of the assay, one can assess the binding potency of the compounds tested. The compounds of the present disclosure were tested and compared to known ENT inhibitors, dilazep and NBMPR:
JAR cells expressing ENT1 were purchased from ATCC® (HTB-144TM). Cells were cultured in RPMI 1640 medium (LONZA®, #BE12-702F/U1) supplemented with 10% FBS (GIBCO®, #10270-106), 10 mM Hepes (LONZA®, #BE17-737E), 1 mM Sodium Pyruvate (LONZA®, #BE13-115E), and 2% Penicillin/Streptomycin (LONZA®, #DE17-603E) at 37° C. and 5% CO2.
The assay was conducted with the following buffer on the day of the assay: HBSS (LONZA®, #LO-527F) supplemented with 10 mM Hepes (LONZA®, #BE17-737E) and 0.1% BSA (Miltenyi®, #130-091-376).
JAR cells were resuspended in the described buffer. The compounds of interest and Sahenta-DY647 were diluted 200× with the described buffer.
A total of 50,000 cells were pre-incubated for 30 min at 4° C. with the compounds of the present disclosure before adding the corresponding amount of Sahenta-DY647 (100 nM) to the minimal concentration at Bmax and incubating for an additional 30 min at 4° C. The total volume of the reaction was 100 μL (50 μL of cells, 25 μL of the compounds of the present disclosure, and 25 μL of Sahenta-DY647) in a U-bottom 96 well plate (Greiner®, #650-180). The plates were washed 2× by centrifugation (4 min, 400 rcf at 4° C.) in the same buffer. Cells were re-suspended in 70 μL of the buffer and 50 μL was transferred to a Black 384 Optiplate (PerkinElmer®, #6007279). Fluorescence (Ex=630 nm, Em=670 nm) was acquired on a Spectramax i3x (Molecular Devices®).
Dose-response data from the compounds were analyzed with Graphpad Prism 9.1.1@software, using nonlinear regression applied to a sigmoidal dose-response model and the following equation:
Y=Bottom+(Top-Bottom)/(1+10^((LogIC50−X)*HillSlope)), with a shared bottom and top between the test reagent and dipyridamole.
Data from multiple experiments were compiled by taking the average pIC50 value for the reagent in question±the standard deviation (s.d.) and expressing it as an average IC50 value in nM.
The inhibitory effect of the test compound was expressed as a percentage of the inhibition of SAHENTA-DY647 binding.

IC50 [nM] | Structure (SMILES)
1 to 20 | CC1OC(n2c(NC3CCC(C)(O)CC3)nc3c(OCc4ccc([N+](=O)[O-])cc4)ncnc32)C(O)C1O (single isomer, unassigned) [Compound 117]
1 to 20 | CC1OC(n2c(NC3CCC(C)(O)CC3)nc3c(OCc4ccc([N+](=O)[O-])cc4)ncnc32)C(O)C1O (single isomer, unassigned) [Compound 118]
1 to 20 | CC1OC(n2c(NC3CC(C)(O)C3)nc3c(OCc4ccc([N+](=O)[O-])cc4)ncnc32)C(O)C1O (single isomer, unassigned) [Compound 133]
< 1 | CC1OC(n2c(NC3CC(C)(O)C3)nc3c(OCc4ccc([N+](=O)[O-])cc4)ncnc32)C(O)C1O (single isomer, unassigned) [Compound 134]
< 1 | CC1OC(n2c(NC3CC(C)(O)C3)nc3c(N4CCc5ccc([N+](=O)[O-])cc5C4)ncnc32)C(O)C1O (single isomer, unassigned) [Compound 137]
< 1 | CC1OC(n2c(NC3CC(C)(O)C3)nc3c(N4CCc5ccc([N+](=O)[O-])cc5C4)ncnc32)C(O)C1O (single isomer, unassigned) [Compound 141]
20 to 500 | Cc1cn(C2OC(C)C(O)C2O)c2ncnc(SCc3ccc([N+](=O)[O-])cc3)c12 (single isomer, unassigned) [Compound 194]
> 500 | Cc1cn(C2OC(C)C(O)C2O)c2ncnc(SCc3ccc([N+](=O)[O-])cc3)c12 (single isomer, unassigned) [Compound 286]
> 500 | C[C@H]1O[C@@H](n2c(N(C)C3CCCC3)nc3c(OCc4ccc([N+](=O)[O-])cc4)ncnc32)[C@H](O)[C@@H]1O [Compound 1]
20 to 500 | C[C@H]1O[C@@H](n2c(C(=O)NC3CCCC3)nc3c(OCc4ccc([N+](=O)[O-])cc4)ncnc32)[C@H](O)[C@@H]1O [Compound 3]
20 to 500 | C[C@H]1O[C@@H](n2c(N)nc3c(OCc4ccc([N+](=O)[O-])cc4)ncnc32)[C@H](O)[C@@H]1O [Compound 4]
1 to 20 | C[C@H]1O[C@@H](n2c(NCCOc3ccccc3)nc3c(OCc4ccc(OC(F)F)cc4)ncnc32)[C@H](O)[C@@H]1O [Compound 7]
20 to 500 | C[C@H]1O[C@@H](n2c(-c3cnn(C)c3)nc3c(OCc4ccc([N+](=O)[O-])cc4)ncnc32)[C@H](O)[C@@H]1O [Compound 13]
20 to 500 | Cc1cc(COc2ncnc3c2nc(NC2CCCC2)n3[C@@H]2O[C@H](C)[C@@H](O)[C@H]2O)ccn1 [Compound 15]
20 to 500 | CNc1nc2c(OCc3ccc([N+](=O)[O-])cc3)ncnc2n1[C@@H]1O[C@H](C)[C@@H](O)[C@H]1O [Compound 19]
20 to 500 | C[C@H]1O[C@@H](n2c(NCCN3CCCC3)nc3c(OCc4ccc([N+](=O)[O-])cc4)ncnc32)[C@H](O)[C@@H]1O [Compound 32]
20 to 500 | C[C@H]1O[C@@H](n2c(NCCN3CCN(C)CC3)nc3c(OCc4ccc([N+](=O)[O-])cc4)ncnc32)[C@H](O)[C@@H]1O [Compound 33]
< 1 | C[C@H]1O[C@@H](n2c(Nc3cn[nH]c3)nc3c(OCc4ccc([N+](=O)[O-])cc4)ncnc32)[C@H](O)[C@@H]1O [Compound 35]
1 to 20 | CCNc1nc2c(OCc3ccc(C#N)cc3)ncnc2n1[C@@H]1O[C@H](C)[C@@H](O)[C@H]1O [Compound 37]
1 to 20 | CCNc1nc2c(OCc3ccc(OC(F)F)cc3)ncnc2n1[C@@H]1O[C@H](C)[C@@H](O)[C@H]1O [Compound 38]
1 to 20 | C[C@H]1O[C@@H](n2c(NC3CC3)nc3c(OCc4ccc(C#N)cc4)ncnc32)[C@H](O)[C@@H]1O [Compound 39]
20 to 500 | C[C@H]1O[C@@H](n2c(NCCO)nc3c(OCc4ccc(C#N)cc4)ncnc32)[C@H](O)[C@@H]1O [Compound 41]
1 to 20 | C[C@H]1O[C@@H](n2c(NCCO)nc3c(OCc4ccc(OC(F)F)cc4)ncnc32)[C@H](O)[C@@H]1O [Compound 42]

IC50 [nM] | Structure (SMILES)
20 to 500 | C[C@H]1O[C@@H](n2c(NCCCO)nc3c(OCc4ccc(C#N)cc4)ncnc32)[C@H](O)[C@@H]1O [Compound 43]
1 to 20 | COCCCNc1nc2c(OCc3ccc(C#N)cc3)ncnc2n1[C@@H]1O[C@H](C)[C@@H](O)[C@H]1O [Compound 45]
1 to 20 | C[C@H]1O[C@@H](n2c(N[C@H]3C[C@@H](O)C3)nc3c(OCc4ccc([N+](=O)[O-])cc4)ncnc32)[C@H](O)[C@@H]1O [Compound 48]
< 1 | C[C@H]1O[C@@H](n2c(N[C@H]3C[C@H](O)C3)nc3c(OCc4ccc(C#N)cc4)ncnc32)[C@H](O)[C@@H]1O [Compound 50]
1 to 20 | C[C@H]1O[C@@H](n2c(N[C@H]3C[C@@H](O)C3)nc3c(OCc4ccc(C#N)cc4)ncnc32)[C@H](O)[C@@H]1O [Compound 51]
< 1 | C[C@H]1O[C@@H](n2c(NC3CCC(O)CC3)nc3c(OCc4ccc(C#N)cc4)ncnc32)[C@H](O)[C@@H]1O (stereo partly drawn) [Compound 52]
< 1 | C[C@H]1O[C@@H](n2c(N[C@H]3CC[C@@H](O)CC3)nc3c(OCc4ccc([N+](=O)[O-])cc4)ncnc32)[C@H](O)[C@@H]1O [Compound 56]
< 1 | C[C@H]1O[C@@H](n2c(N[C@H]3CC[C@H](O)CC3)nc3c(OCc4ccc([N+](=O)[O-])cc4)ncnc32)[C@H](O)[C@@H]1O [Compound 57]
1 to 20 | C[C@H]1O[C@@H](n2c(NCCCS(C)(=O)=O)nc3c(OCc4ccc([N+](=O)[O-])cc4)ncnc32)[C@H](O)[C@@H]1O [Compound 60]
20 to 500 | C[C@H]1O[C@@H](n2c(NCCCS(C)(=O)=O)nc3c(OCc4ccc(C#N)cc4)ncnc32)[C@H](O)[C@@H]1O [Compound 61]
1 to 20 | C[C@H]1O[C@@H](n2c(NCCCS(C)(=O)=O)nc3c(OCc4ccc(OC(F)F)cc4)ncnc32)[C@H](O)[C@@H]1O [Compound 62]
20 to 500 | C[C@H]1O[C@@H](n2c(Nc3cnn(C)c3)nc3c(OCc4ccc(C#N)cc4)ncnc32)[C@H](O)[C@@H]1O [Compound 63]
< 1 | Cc1nn(C)c(C)c1CNc1nc2c(OCc3ccc([N+](=O)[O-])cc3)ncnc2n1[C@H]1O[C@H](C)[C@@H](O)[C@H]1O [Compound 67]
20 to 500 | C[C@H]1O[C@@H](n2c(NCc3ncn(C)n3)nc3c(OCc4ccc(C#N)cc4)ncnc32)[C@H](O)[C@@H]1O [Compound 69]
1 to 20 | Cc1ncc(CNc2nc3c(OCc4ccc(C#N)cc4)ncnc3n2[C@@H]2O[C@H](C)[C@@H](O)[C@H]2O)cn1 [Compound 71]
1 to 20 | COc1ncc(CNc2nc3c(OCc4ccc(C#N)cc4)ncnc3n2[C@@H]2O[C@H](C)[C@@H](O)[C@H]2O)cn1 [Compound 72]
< 1 | C[C@H]1O[C@@H](n2c(N[C@@H]3CCC(F)(F)C3)nc3c(OCc4ccc([N+](=O)[O-])cc4)ncnc32)[C@H](O)[C@@H]1O [Compound 83]
< 1 | C[C@H]1O[C@@H](n2c(N[C@H]3CCC(F)(F)C3)nc3c(OCc4ccc([N+](=O)[O-])cc4)ncnc32)[C@H](O)[C@@H]1O [Compound 84]
< 1 | C[C@H]1O[C@@H](n2c(NC3CCCC3)nc3c(OCc4ccc([N+](=O)[O-])nc4)ncnc32)[C@H](O)[C@@H]1O [Compound 85]
< 1 | Cc1cc(COc2ncnc3c2nc(NC2CCCC2)n3[C@@H]2O[C@H](C)[C@@H](O)[C@H]2O)ccc1[N+](=O)[O-] [Compound 86]
1 to 20 | C[C@H]1O[C@@H](n2c(NC3CCCC3)nc3c(OCc4ccc(OC(F)(F)F)cc4)ncnc32)[C@H](O)[C@@H]1O [Compound 88]
1 to 20 | Cc1ccc(COc2ncnc3c2nc(NC2CCCC2)n3[C@@H]2O[C@H](C)[C@@H](O)[C@H]2O)cc1 [Compound 90]
